Data: patent publication US20110212100A1, “METHODS FOR MODULATING DEVELOPMENT AND EXPANSION OF IL-17 EXPRESSING CELLS” (priority 2007, published 2011)

How the values were obtained:
[1] = system: primary T cells; format: cell-based
Procedure: The non-specific cytoxicity of HF in both normal and transformed T-cells at high doses was evaluated. Anti-CD3/anti-CD28 activated primary T cells were harvested 6 days after activation and cultured in the presence of IL-2 with or without HF (100 nM). As a positive control, some T cells were cultured without IL-2 to induce apoptosis (FIG. 3A). Jurkat T cells, a transformed T cell leukemia line, were cultured in complete medium with or without HF (100 nM) as indicated (FIG. 3B). Both primary and Jurkat T cells were cultured for 30 hours and programmed cell death, i.e. apoptosis, was determined by Annexin V staining and propidium iodide (PI) uptake and cells were analyzed by flow cytometry. The percent of apoptotic T cells at each time point was plotted and was defined as Annexin V^+ PI^−. […] In further experiments, titrating amounts of HF were added to primary T cells and apoptosis was determine as above at the indicated time points. At 100 nM HF, but not 30 nM or lower, generalized T-cell apoptosis was observed (FIG. 3C).

[2] = system: RORγt; test: RORγt expression during Th17 differentiation (real-time PCR); format: cell-based, mouse; conditions: 10 nM HF
Procedure: T cells were harvested at the indicated times following activation, RNA was isolated and quantitative real-time PCR was performed using RORγt-specific primers and taqman probe. RORγt expression was normalized to Gapdh levels, and the data are presented as fold changes relative to naïve T cells.
Quantitative real-time PCR: T cells were activated as described above, collected at the indicated times and pellets were flash-frozen in liquid nitrogen. Total RNA was obtained by RNeasy (Quiagen, Valencia, Calif.) column purification per manufacturers instructions. RORγt expression was determined after reverse transcription using the message sensor kit (Ambion, Austin, Tex.) per manufacturers instructions and taqman primers and probe as described elsewhere (I. Ivanov, et al., Cell 126, 1121, 2006). Sybrgreen quantitative real-time PCR was performed on T cell RNA samples following reverse transcription via SuperScript II first-strand cDNA synthesis kit (Invitrogen, Carlsbad, Calif.). All PCR data was collected on an iCycler thermal cycler (Biorad, Hercules, Calif.). Primer sequences used for detecting stress response genes are listed below.

Which “concentration at which generalized T-cell apoptosis was not observed” value [1] does the source give for O=C(CC1NCCCC1O)Cn1cnc2cc(Br)c(Cl)cc2c1=O (racemic) [HF, 7-bromo-6-chloro-3-[3-(3-hydroxy-2-piperidinyl)-2-oxopropyl]-4(3H)-quinazolinone] here?
The value was ≤ 0.03 µM.

What about the “concentration at which generalized T-cell apoptosis was observed” value [1] of the same compound?
The value was 0.1 µM.

What about the “effect on upregulation of RORγt or RORγ during Th17 differentiation, in words” value [2] of the same compound?
Its value is “did not interfere with the upregulation of RORγt or RORγ”.
